From patent US12084459B2, “2-(4-{1-[6-(4-isopropyl-phenyl)-imidazo[2,1-b][1,3,4]thiadiazol-2-yl]-piperidin-4-ylmethyl}-piperazin-1-yl)-ethanol and use thereof” (Urifer Ltd., priority 2020, dated 2024)

Test: toxicity in mice: body weight and observations after IP administration
Format: in vivo
Conditions: for body weight / body weight change (% wt/wt): male mice
How it was run: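 Mice (female where stated) received the test compound intraperitoneally on day 1, dissolved in 20% hydroxypropylcyclodextrane at an administration volume of 10 ml/kg. Toxicity was assessed from body weight, body weight change (% wt/wt) and observations of the animals after administration.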

Which results are given for `CC(C)c1ccc(-c2cn3nc(N4CCC(CN5CCN(CCO)CC5)CC4)sc3n2)cc1` [Compound E266, 2-(4-{1-[6-(4-isopropyl-phenyl)-imidazo[2,1-b][1,3,4]thiadiazol-2-yl]-piperidin-4-ylmethyl}-piperazin-1-yl)-ethanol]?
body weight (100 mg/kg IP, day 1): 37.4 g; body weight change (% wt/wt) (100 mg/kg IP, day 1): 0%; body weight (100 mg/kg IP, day 2): 38.2 g; body weight change (% wt/wt) (100 mg/kg IP, day 2): 2.1%; body weight (100 mg/kg IP, day 3): 38 g; body weight change (% wt/wt) (100 mg/kg IP, day 3): 1.6%; body weight (100 mg/kg IP, day 4): 37.3 g; body weight change (% wt/wt) (100 mg/kg IP, day 4): −0.3%; body weight (100 mg/kg IP, day 5): 37.9 g; body weight change (% wt/wt) (100 mg/kg IP, day 5): 1.3%; body weight (100 mg/kg IP, day 6): 37.5 g; body weight change (% wt/wt) (100 mg/kg IP, day 6): 0.3%; body weight (100 mg/kg IP, day 7): 37.4 g; body weight change (% wt/wt) (100 mg/kg IP, day 7): 0.0%; body weight (100 mg/kg IP, day 8): 37.5 g; body weight change (% wt/wt) (100 mg/kg IP, day 8): 0.3%; body weight (100 mg/kg IP, day 9): 36.8 g; body weight change (% wt/wt) (100 mg/kg IP, day 9): −1.6%; body weight (100 mg/kg IP, day 10): 37.2 g; body weight change (% wt/wt) (100 mg/kg IP, day 10): −0.5%; body weight (100 mg/kg IP, day 11): 37.3 g; body weight change (% wt/wt) (100 mg/kg IP, day 11): −0.3%; body weight (100 mg/kg IP, day 12): 37.3 g; body weight change (% wt/wt) (100 mg/kg IP, day 12): −0.3%; body weight (100 mg/kg IP, day 13): 37.7 g; body weight change (% wt/wt) (100 mg/kg IP, day 13): 0.8%; body weight (100 mg/kg IP, day 14): 38.1 g; body weight change (% wt/wt) (100 mg/kg IP, day 14): 1.9%; body weight (100 mg/kg IP, day 15): 36.6 g; body weight change (% wt/wt) (100 mg/kg IP, day 15): −2.1%; body weight (200 mg/kg IP, day 1): 37.8 g; body weight change (% wt/wt) (200 mg/kg IP, day 1): 0%; body weight (200 mg/kg IP, day 2): 38.1 g; body weight change (% wt/wt) (200 mg/kg IP, day 2): 0.8%; body weight (200 mg/kg IP, day 3): 38.2 g; body weight change (% wt/wt) (200 mg/kg IP, day 3): 1.1%; body weight (200 mg/kg IP, day 4): 38.3 g; body weight change (% wt/wt) (200 mg/kg IP, day 4): 1.3%; body weight (200 mg/kg IP, day 5): 37.6 g; body weight change (% wt/wt) (200 mg/kg IP, day 5): −0.5%; body weight (200 mg/kg IP, day 6): 38 g; body weight change (% wt/wt) (200 mg/kg IP, day 6): 0.5%; body weight (200 mg/kg IP, day 7): 39.2 g; body weight change (% wt/wt) (200 mg/kg IP, day 7): 3.7%; body weight (200 mg/kg IP, day 8): 39.7 g; body weight change (% wt/wt) (200 mg/kg IP, day 8): 5.0%; body weight (200 mg/kg IP, day 9): 38 g; body weight change (% wt/wt) (200 mg/kg IP, day 9): 0.5%; body weight (200 mg/kg IP, day 10): 37.9 g; body weight change (% wt/wt) (200 mg/kg IP, day 10): 0.3%; body weight (200 mg/kg IP, day 11): 38.2 g; body weight change (% wt/wt) (200 mg/kg IP, day 11): 1.1%; body weight (200 mg/kg IP, day 12): 38.7 g; body weight change (% wt/wt) (200 mg/kg IP, day 12): 2.4%; body weight (200 mg/kg IP, day 13): 37.9 g; body weight change (% wt/wt) (200 mg/kg IP, day 13): 0.3%; body weight (200 mg/kg IP, day 14): 38.8 g; body weight change (% wt/wt) (200 mg/kg IP, day 14): 2.6%; body weight (200 mg/kg IP, day 15): 37.6 g; body weight change (% wt/wt) (200 mg/kg IP, day 15): −0.5%; body weight (400 mg/kg IP, day 1): 40.3 g; body weight change (% wt/wt) (400 mg/kg IP, day 1): 0%; body weight (400 mg/kg IP, day 2): 40 g; body weight change (% wt/wt) (400 mg/kg IP, day 2): −.07%; body weight (400 mg/kg IP, day 3): 41.3 g; body weight change (% wt/wt) (400 mg/kg IP, day 3): 2.5%; body weight (400 mg/kg IP, day 4): 40.8 g; body weight change (% wt/wt) (400 mg/kg IP, day 4): 1.2%; body weight (400 mg/kg IP, day 5): 39.6 g; body weight change (% wt/wt) (400 mg/kg IP, day 5): −1.7%; body weight (400 mg/kg IP, day 6): 40.4 g; body weight change (% wt/wt) (400 mg/kg IP, day 6): 0.2%; body weight (400 mg/kg IP, day 7): 40.5 g; body weight change (% wt/wt) (400 mg/kg IP, day 7): 0.5%; body weight (400 mg/kg IP, day 8): 40.7 g; body weight change (% wt/wt) (400 mg/kg IP, day 8): 1.0%; body weight (400 mg/kg IP, day 9): 39.4 g; body weight change (% wt/wt) (400 mg/kg IP, day 9): −2.2%; body weight (400 mg/kg IP, day 10): 40 g; body weight change (% wt/wt) (400 mg/kg IP, day 10): −0.7%; body weight (400 mg/kg IP, day 11): 39.7 g; body weight change (% wt/wt) (400 mg/kg IP, day 11): −1.5%; body weight (400 mg/kg IP, day 12): 40.1 g; body weight change (% wt/wt) (400 mg/kg IP, day 12): −0.5%; body weight (400 mg/kg IP, day 13): 40.1 g; body weight change (% wt/wt) (400 mg/kg IP, day 13): −0.5%; body weight (400 mg/kg IP, day 14): 40.2 g; body weight change (% wt/wt) (400 mg/kg IP, day 14): −0.2%; body weight (400 mg/kg IP, day 15): 39.3 g; body weight change (% wt/wt) (400 mg/kg IP, day 15): −2.5%; observations after administration (mice, IP administration): a decrease in locomotor and piloererection right after administration were observed, these were reversible and full recovery was observed
